Structures can show the parent of a compound that is named as a salt.
Target: T1, h-NK1 receptors (Homo sapiens, UniProt P25103)
T1 construct: expressed in transfected cells; host or cells: CHO cells, permanently expressing; crude membranes
Test: 125I-BH-Substance P binding to h-NK1 receptors
Settings: read-out: inhibition rate of 125I-BH-Substance P binding to h-NK1 receptors
Method: (a) Crude CHO cell membrane preparation
CHO cells permanently expressing h-NK1 receptors were harvested and homogenized with a Dounce homogenizer at 4° C. in a buffer (0.25 M sucrose, […] Tris-HCl pH 7.4, 10 mM MgCl2, 1 mM EDTA, 5 μg/ml p-APMSF). The homogenate was centrifuged (500×g, 10 minutes), and the pellet was resuspended in the same buffer, homogenized, and centrifuged. The two supernatants were combined and centrifuged (100,000×g, 1 hour). The crude cell membranes thus isolated were resuspended in buffer (25 mM Tris-HCl pH 7.4, 10 mM MgCl2, 1 mM EDTA, 5 μg/ml p-APMSF) and stored at -80° C. until use.
At the end of the incubation period, the content was quickly filtered over a Wahtman GF/C glass filter (pretreated with 0.1% polyethylene imine for 3 hours prior to use) under aspiration. Each of the filters was then washed four times with 5 ml of buffer (50 mM Tris-HCl pH 7.4, 5 mM MnCl2). […] All data presented are specific binding defined as that displaceable by 3 μM unlabeled Substance P.

T1 sequence (P25103 whole entry): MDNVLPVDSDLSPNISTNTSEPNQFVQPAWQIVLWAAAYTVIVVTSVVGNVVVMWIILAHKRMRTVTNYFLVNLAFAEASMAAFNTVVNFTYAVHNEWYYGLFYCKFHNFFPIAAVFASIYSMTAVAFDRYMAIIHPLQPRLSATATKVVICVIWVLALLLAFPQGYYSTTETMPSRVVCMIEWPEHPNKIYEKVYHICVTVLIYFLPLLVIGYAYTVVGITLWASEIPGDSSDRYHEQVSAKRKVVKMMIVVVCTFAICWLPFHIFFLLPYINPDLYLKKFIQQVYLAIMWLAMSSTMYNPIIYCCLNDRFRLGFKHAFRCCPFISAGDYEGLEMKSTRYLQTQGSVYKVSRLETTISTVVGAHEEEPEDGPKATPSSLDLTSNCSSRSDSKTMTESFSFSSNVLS

Structure (SMILES)	inhibition at 0.1 µg/mL [%]
CN1CCCN(C(=O)CN2C[C@@H](Cc3c[nH]c4ccccc34)N(C(=O)c3cc(C(F)(F)F)cc(C(F)(F)F)c3)CC2=O)CC1 [Example 6, (5R)-4-[3,5-bis(trifluoromethyl)benzoyl]-5-(1H-indol-3-ylmethyl)-1-[(4-methyl-1-homopiperazinyl)carbonylmethyl]-piperazin-2-one hydrochloride]	> 90

Same assay, conditions: test compound at 0.1 μg/ml; crude membranes of CHO cells expressing h-NK1 receptors; read-out: inhibition rate of 125I-BH-Substance P binding to h-NK1 receptors

inhibition at 0.1 µg/mL [%]	Structure (SMILES)
> 90	O=C(CN1C[C@@H](Cc2c[nH]c3ccccc23)N(C(=O)c2cc(C(F)(F)F)cc(C(F)(F)F)c2)CC1=O)N1CCC(N2CCCCC2)CC1 [Example 7-1]
> 90	O=C(CCCN1C[C@@H](Cc2c[nH]c3ccccc23)N(C(=O)c2cc(C(F)(F)F)cc(C(F)(F)F)c2)CC1=O)N1CCC(N2CCCCC2)CC1 [Example 7-3]
> 90	CN1CCCN(C(=O)CCCN2C[C@@H](Cc3c[nH]c4ccccc34)N(C(=O)c3cc(C(F)(F)F)cc(C(F)(F)F)c3)CC2=O)CC1 [Example 7-4]

Second part, the molecule before the results:

Structure (SMILES)	inhibition at 0.1 µg/mL [%]
CCOC(=O)CCCN1C[C@@H](Cc2c[nH]c3ccccc23)N(C(=O)c2cc(C(F)(F)F)cc(C(F)(F)F)c2)CC1=O [Example 2, (5R)-4-[3,5-bis(trifluoromethyl)benzoyl]-1-[3-(ethoxycarbonyl)propyl]-5-(1H-indol-3-ylmethyl)piperazin-2-one]	> 90
CCOC(=O)CN1C[C@@H](Cc2c[nH]c3ccccc23)N(C(=O)c2cc(C(F)(F)F)cc(C(F)(F)F)c2)CC1=O [Example 3, (5R)-4-[3,5-bis(trifluoromethyl)benzoyl]-1-(ethoxycarbonylmethyl)-5-(1H-indol-3-ylmethyl)piperazin-2-one]	> 90
NC(=O)CN1C[C@@H](Cc2c[nH]c3ccccc23)N(C(=O)c2cc(C(F)(F)F)cc(C(F)(F)F)c2)CC1=O [Example 5, (5R)-4-[3,5-bis(trifluoromethyl)benzoyl]-1-(carbamoylmethyl)-5-(1H-indol-3-ylmethyl)piperazin-2-one]	> 90

Reference: patent US5939413A, “Piperazine derivatives” (Fujisawa Pharmaceutical Co., Ltd., priority 1995, dated 1999)
